{
  "source": "patent US9585954B2",
  "about": "“Mucosal immunization” (ARIZONA BOARD OF REGENTS FOR AND ON BEHALF OF ARIZONA STATE …, priority 2009, dated 2017)",
  "system": "antigen-relevant immune responses to NVCP VLP",
  "parameters": "species or system experimental animals",
  "details": "in vivo",
  "data": [
    {"smiles": "CCNCc1nc2c(N)nc3ccccc3c2n1CC(C)(C)O", "note": "[gardiquimod]", "values": [
      {"measurement": "antigen-relevant immune responses", "value": "much more robust immune responses"}
    ]}
  ]
}
